Assay results: ChEMBL document CHEMBL1201862, “PubChem BioAssay data set” (2004)
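Exposure lasted 48 hours, with cells grown in 96-well plates and compounds tested at five concentrations. Abbreviation: GI50, concentration required for 50% inhibition of growth.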 Calls of active or inactive are those of the source. No stated cut-off is given here; in the data, active = GI50 up to about 1.1 µM and inactive = higher.

Assays:
Assay in all cases: NCI tumour cell line growth inhibition, 48 h
BT-549 = test system: BT-549
CAKI-1 = test system: CAKI-1
COLO 205 = test system: COLO 205
HOP-62 = test system: HOP-62
IGROV-1 = test system: IGROV-1
K562 = test system: K562
MCF7 = test system: MCF7
MDA-MB-231 = test system: MDA-MB-231
MDA-N = test system: MDA-N
NCI-H522 = test system: NCI-H522
OVCAR-8 = test system: OVCAR-8
RPMI-8226 = test system: RPMI-8226
RXF 393 = test system: RXF 393
SN12C = test system: SN12C
SNB-19 = test system: SNB-19
SNB-75 = test system: SNB-75
SR = test system: SR
SW-620 = test system: SW-620
TK-10 = test system: TK-10
UACC-62 = test system: UACC-62

| SMILES | GI50 (BT-549) | GI50 (CAKI-1) | GI50 (COLO 205) | GI50 (HOP-62) | GI50 (IGROV-1) | GI50 (K562) | GI50 (MCF7) | GI50 (MDA-MB-231) | GI50 (MDA-N) | GI50 (NCI-H522) | GI50 (OVCAR-8) | GI50 (RPMI-8226) | GI50 (RXF 393) | GI50 (SN12C) | GI50 (SNB-19) | GI50 (SNB-75) | GI50 (SR) | GI50 (SW-620) | GI50 (TK-10) | GI50 (UACC-62) |
| --- | --- | --- | --- | --- | --- | --- | --- | --- | --- | --- | --- | --- | --- | --- | --- | --- | --- | --- | --- | --- |
| Cc1c(-c2ccccc2)c(C#N)c2nnn(C3CCCCC3)c(=O)n12 | > 100 µM (inactive) | 0.425 µM (active) | 88.1 µM (inactive) | 14.7 µM (inactive) | 60.4 µM (inactive) | 88.3 µM (inactive) | > 100 µM (inactive) | 21.6 µM (inactive) | > 100 µM (inactive) | > 100 µM (inactive) | 44 µM (inactive) | 47.4 µM (inactive) | 19.8 µM (inactive) | 98.2 µM (inactive) | 66.5 µM (inactive) | 28 µM (inactive) | 24.8 µM (inactive) | > 100 µM (inactive) | > 100 µM (inactive) | > 100 µM (inactive) |
| COc1cccc(C(=O)Nc2c3ccccc3nc3ccccc23)c1OC | > 100 µM (inactive) | > 100 µM (inactive) | > 100 µM (inactive) | 45.7 µM (inactive) | > 100 µM (inactive) | > 100 µM (inactive) | > 100 µM (inactive) | > 100 µM (inactive) | > 100 µM (inactive) | 29.2 µM (inactive) | 88.9 µM (inactive) | > 100 µM (inactive) | 23.4 µM (inactive) | > 100 µM (inactive) | 62.2 µM (inactive) | 17.5 µM (inactive) | > 100 µM (inactive) | > 100 µM (inactive) | > 100 µM (inactive) | > 100 µM (inactive) |
| O=C(O)C1CCCN1Cc1c[nH]c2ccccc12 (configuration not stated) | > 100 µM (inactive) | > 100 µM (inactive) | > 100 µM (inactive) | > 100 µM (inactive) | > 100 µM (inactive) | > 100 µM (inactive) | > 100 µM (inactive) | > 100 µM (inactive) | > 100 µM (inactive) | > 100 µM (inactive) | > 100 µM (inactive) | > 100 µM (inactive) | > 100 µM (inactive) | > 100 µM (inactive) | > 100 µM (inactive) | > 100 µM (inactive) | > 100 µM (inactive) | > 100 µM (inactive) | > 100 µM (inactive) | > 100 µM (inactive) |
| COc1ccc(C2c3cc4c(cc3OC(NNS(=O)(=O)c3ccc(C)cc3)C2C)OCO4)cc1 (configuration not stated) | 53.5 µM (inactive) | 65.9 µM (inactive) | 36.3 µM (inactive) | > 100 µM (inactive) | 57.1 µM (inactive) | 10.6 µM (inactive) | 41.1 µM (inactive) | > 100 µM (inactive) | 58.3 µM (inactive) | 11.8 µM (inactive) | > 100 µM (inactive) | 12.5 µM (inactive) | 38.6 µM (inactive) | > 100 µM (inactive) | > 100 µM (inactive) | 37.4 µM (inactive) | 9.12 µM (inactive) | 73.5 µM (inactive) | > 100 µM (inactive) | 71.6 µM (inactive) |
| COc1ccc(CN2C(=O)CCC/C=C\[C@H]2CI)cc1 | 19.5 µM (inactive) | 10.3 µM (inactive) | 13.9 µM (inactive) | 16 µM (inactive) | 15.6 µM (inactive) | 6.97 µM (inactive) | 10.7 µM (inactive) | 11 µM (inactive) | 13.1 µM (inactive) | 12.7 µM (inactive) | 14.4 µM (inactive) | 6.97 µM (inactive) | 3.32 µM (inactive) | 14 µM (inactive) | 13.2 µM (inactive) | 2.41 µM (inactive) | 11.5 µM (inactive) | 11.6 µM (inactive) | 12.5 µM (inactive) | 10.8 µM (inactive) |
| NCC(=O)Nc1ccc(Cl)cc1C(=O)c1ccc[nH]1 | 70.3 µM (inactive) | 78 µM (inactive) | > 86.1 µM (inactive) | > 94.2 µM (inactive) | > 48.4 µM (inactive) | 10.5 µM (inactive) | 6.31 µM (inactive) | > 51.1 µM (inactive) | 23.4 µM (inactive) | 11.5 µM (inactive) | > 56.8 µM (inactive) | 5.57 µM (inactive) | > 82.2 µM (inactive) | > 36.3 µM (inactive) | > 100 µM (inactive) | 38.5 µM (inactive) | 8.99 µM (inactive) | 13.6 µM (inactive) | > 94.6 µM (inactive) | > 68.5 µM (inactive) |
| O=C1c2ccccc2C(=O)c2c(/C=C\N3CCCCC3)ccnc21 | 0.889 µM (active) | 16.9 µM (inactive) | 3.51 µM (inactive) | 3.81 µM (inactive) | 11.1 µM (inactive) | 0.551 µM (active) | 0.869 µM (active) | 19.1 µM (inactive) | 0.383 µM (active) | 2.55 µM (inactive) | 2.15 µM (inactive) | 2.29 µM (inactive) | 8.53 µM (inactive) | 1.4 µM (inactive) | 4.91 µM (inactive) | 2.01 µM (inactive) | 8.36 µM (inactive) | 0.839 µM (active) | 15.2 µM (inactive) | 0.659 µM (active) |
| CC(=O)OCc1ccc(O)c(C=O)c1 | > 100 µM (inactive) | > 100 µM (inactive) | > 100 µM (inactive) | > 100 µM (inactive) | > 100 µM (inactive) | 73.6 µM (inactive) | 37.9 µM (inactive) | > 100 µM (inactive) | 64.6 µM (inactive) | > 100 µM (inactive) | 96.2 µM (inactive) | > 100 µM (inactive) | > 100 µM (inactive) | 84.3 µM (inactive) | 92.3 µM (inactive) | > 100 µM (inactive) | 60.3 µM (inactive) | > 100 µM (inactive) | > 100 µM (inactive) | 71.3 µM (inactive) |
| Cc1sc2[nH]c(=O)oc(=O)c2c1C | 22.9 µM (inactive) | 35.8 µM (inactive) | 59 µM (inactive) | 72.8 µM (inactive) | > 75.3 µM (inactive) | > 96.4 µM (inactive) | 26.1 µM (inactive) | > 70.8 µM (inactive) | 58.2 µM (inactive) | 26 µM (inactive) | 65.8 µM (inactive) | 41.2 µM (inactive) | > 100 µM (inactive) | > 76.2 µM (inactive) | > 100 µM (inactive) | > 55.8 µM (inactive) | 37.8 µM (inactive) | > 80.4 µM (inactive) | > 100 µM (inactive) | 52.1 µM (inactive) |
| COC(=O)c1c(O)ccc2c1c1c(n2Cc2ccc(Cl)cc2Cl)C(=O)c2ccccc2C1=O | 13.2 µM (inactive) | 12.2 µM (inactive) | 11.2 µM (inactive) | 9.18 µM (inactive) | 11.2 µM (inactive) | 5.9 µM (inactive) | 4.09 µM (inactive) | 10.9 µM (inactive) | 12.1 µM (inactive) | 7.46 µM (inactive) | 8.99 µM (inactive) | 2.88 µM (inactive) | 4.09 µM (inactive) | 2.21 µM (inactive) | 15.7 µM (inactive) | 17.9 µM (inactive) | 3.44 µM (inactive) | 13.4 µM (inactive) | 14.9 µM (inactive) |  |
| CC1=C2c3ccccc3N(S(=O)(=O)c3ccccc3)[C@H]2[C@H](C(=O)N2C3CC4CC[C@@]3(CS2(=O)=O)C4(C)C)CC1 (some centres not stated) | 8.28 µM (inactive) | 11.2 µM (inactive) | 47.9 µM (inactive) | 16.4 µM (inactive) | 59.4 µM (inactive) | 7.24 µM (inactive) | 18 µM (inactive) | > 100 µM (inactive) | > 10 µM (inactive) | 10.8 µM (inactive) | 21.6 µM (inactive) | 0.334 µM (active) | 0.222 µM (active) | 39.1 µM (inactive) | 24.9 µM (inactive) | 0.635 µM (active) | 12.5 µM (inactive) | > 100 µM (inactive) | 43.9 µM (inactive) | 9.55 µM (inactive) |
| NC(=O)c1nnn(Cc2cc(Cl)c(C(=O)c3ccc(Cl)cc3)c(Cl)c2)c1N [CARBOXYAMIDOTRIAZOLE] | 21.6 µM (inactive) | 12.4 µM (inactive) | 27.8 µM (inactive) | 25.7 µM (inactive) | 22.5 µM (inactive) | 8.05 µM (inactive) | 11.4 µM (inactive) | > 36.2 µM (inactive) | 10.7 µM (inactive) | 19 µM (inactive) | 24.1 µM (inactive) | 25.4 µM (inactive) | 23.7 µM (inactive) | 29.2 µM (inactive) | 24.4 µM (inactive) | 32.8 µM (inactive) | 6.75 µM (inactive) | 27.1 µM (inactive) | 20.6 µM (inactive) | 12.9 µM (inactive) |
| O=C(O)c1ccccc1/C=C1\Cc2cc3c(cc2C1=O)CCC3 | 56.9 µM (inactive) |  | 21.9 µM (inactive) | 25.3 µM (inactive) | 23.6 µM (inactive) | 17.1 µM (inactive) | 20.7 µM (inactive) | 20.3 µM (inactive) | 11.9 µM (inactive) | 18.9 µM (inactive) | 26.3 µM (inactive) | 21.1 µM (inactive) | 21.3 µM (inactive) | 20.4 µM (inactive) | 26.7 µM (inactive) | 3.57 µM (inactive) | 4.72 µM (inactive) | 21.8 µM (inactive) | 17.8 µM (inactive) | 16.9 µM (inactive) |
| O=C(/C=C/c1cc2ccccc2o1)N1CCN(c2ccccn2)CC1 | > 100 µM (inactive) | > 100 µM (inactive) | 85.7 µM (inactive) | 97.9 µM (inactive) | 84.1 µM (inactive) | > 100 µM (inactive) | 57.5 µM (inactive) | 90.2 µM (inactive) | > 100 µM (inactive) | 28 µM (inactive) | > 100 µM (inactive) | > 100 µM (inactive) | > 100 µM (inactive) | > 100 µM (inactive) | > 100 µM (inactive) |  | > 100 µM (inactive) | > 100 µM (inactive) | 79.6 µM (inactive) | 86.7 µM (inactive) |
